The NIST ThermoML archive (doi:10.1016/j.jct.2014.06.012)
Numbers after ± are expanded uncertainties.

Assay: Molar enthalpy of transition or fusion
Details: Adiabatic calorimetry

Molar enthalpy of transition or fusion (Crystal 2): 0.038 ± 0.000669 kcal/mol
Molar enthalpy of transition or fusion (Crystal 3): 0.00306 ± 9.56e-05 kcal/mol
SMILES: O=P([O-])([O-])[O-].[Cs+].[Mn+2] [cesium manganese(II) phosphate]
